Test [1] concerns the target GABA-A receptor; anion channel. In words: Displacement of [3H]muscimol from rat brain gamma-aminobutyric-acid GABA-A receptor.
Test [2] deals with GABA-A receptor (Mus musculus). In words: cells.

In the case of `Oc1noc(C2CCNCC2)c1Cc1ccc2ccccc2c1Cl`, the affinity in test [1], expressed as Ki, was 16 nM. Moreover, in test [2], it took 113 nM to reach half-maximal inhibition (IC50).
The compound `Oc1noc(C2CCNCC2)c1Cc1ccc2c(Br)cccc2c1` had a Ki in test [1] of 80 nM. In test [2], the IC50 was 215 nM.
Taken in the same sequence, the figures for `N#Cc1c(Cc2c(O)noc2C2CCNCC2)ccc2ccccc12` were 28 nM and 140 nM.
In test [1], `Oc1noc(C2CCNCC2)c1Cc1ccc2ccccc2c1Sc1ccccc1` had a Ki of 250 nM. Also, the IC50 in test [2] came to 126 nM.
In turn, `O=c1[nH]oc(C2CCNCC2)c1-c1cccc2ccccc12` had a Ki in test [1] of 820 nM. The same compound yielded an IC50 in test [2] of 334 nM.
Regarding `Oc1noc(C2CCNCC2)c1Cc1ccc2ccccc2c1-c1ccccc1`, the Ki in test [1] was 21 nM. Besides, the IC50 in test [2] worked out at 198 nM.
Regarding `Oc1noc(C2CCNCC2)c1-c1ccc2ccccc2c1`, in test [1], the Ki was found to be 36 nM. Also, in test [2], inhibition was half-maximal at 141 nM (IC50).
Taken in the same sequence, the figures for `CSc1c(Cc2c(O)noc2C2CCNCC2)ccc2ccccc12` were 28 nM and 61 nM.
Regarding `Oc1noc(C2CCNCC2)c1Cc1ccc2ccccc2c1`, in test [2], the IC50 turned out to be 370 nM.
Take `Oc1noc(C2CCNCC2)c1Cc1ccc2cccc(Br)c2c1`: in test [1], the Ki stood at 45 nM. Moreover, in test [2], it took 226 nM to reach half-maximal inhibition (IC50).
Compound `Oc1noc(C2CCNCC2)c1Cc1ccc2ccccc2c1Br` displayed a Ki in test [1] of 10 nM. In addition, it took 42 nM to reach half-maximal inhibition in test [2] (IC50).
Regarding `Oc1noc(C2CCNCC2)c1Cc1ccc2ccc(Br)cc2c1`, in test [1], the Ki amounted to 109 nM. Moreover, the IC50 in test [2] is 384 nM.
Taken in the same sequence, the figures for `Oc1noc(C2CCNCC2)c1Cc1ccc2ccccc2c1F` were 19 nM and 242 nM.
Compound `Oc1noc(C2CCNCC2)c1-c1ccccc1` displayed a Ki in test [1] of 220 nM. Also, in test [2], 159 nM corresponded to half-maximal inhibition (IC50).

For the origin of these results see ChEMBL document CHEMBL1145174, “Potent 4-aryl- or 4-arylalkyl-substituted 3-isoxazolol GABA(A) antagonists: synthesis, pharmacology, and molecular modeling” (J Med Chem, 2005).
